The target in one series is CYP2C19 (Homo sapiens, UniProt P33261). Put plainly: Cytochrome P450 isoform inhibition in human hepatic microsomes, S-mephenytoin (Example 18). The class given is in vitro ADME. Particulars: both sexes, human, pooled human hepatic microsomes, probe S-mephenytoin 50 μM; positive control 10 μM.
The nature of series [1]: Pharmacokinetic study in SD rats, chiral HPLC of plasma halofenic acids (Example 14). Format: in vivo. Particulars: single oral dose of (−) halofenate 50 mg/kg. How it is done:
Male 225-250 g SD rats were purchased from Charles River. […] A catheter was placed in the left carotid artery under sodium pentobarbital (50 mg/kg i.p.) and animals were allowed to recover for 2 days before treatment. […] The gavage volume was 5 ml/kg. Blood samples were collected at 1, 2, 4, 6, 8, 12, 24, 48, 72, 96 and 120 hours post dose. The plasma samples were analyzed for each enantiomeric acid ((−) halofenic acid and (+) halofenic acid) by a chiral specific HPLC assay, since the esters are prodrugs, which are designed to convert to their respective enantiomeric acids in vivo.

The target in series [2] is T1, cytochrome P450 2C9 (CYP2C9) (Homo sapiens, UniProt P11712). Kind of series: biochemical.
Method: (§2) Tolbutamide hydroxylation activity (100 μM C-tolbutamide; 1 mM NADPH) was assayed in pooled human liver microsomes (0.6 mg protein/ml)) for 60 minutes at 37° C. both with and without test compounds.
For series [3], the target named is T1, cytochrome P450 2C9 (CYP2C9). Put plainly: Inhibition of CYP2C9 tolbutamide hydroxylation activity in pooled human liver microsomes (Example 7). (Liver microsomes are a subcellular fraction often used to study metabolism.)
Method: as §2
For series [4], the system named is Zucker fatty rats. Put plainly: Oral glucose challenge in Zucker fatty rats (Example 10). Format: in vivo. Particulars: racemate 100 mg/kg, enantiomers 50 and 100 mg/kg; for incremental glucose area under the curve (AUC) vs control, in words: single oral dose. The procedure:
(§1) Prior to treatment, rats were assigned to 6 groups based on body weight. Each treatment group consisted of 8 rats. […] The gavage volume was 10 ml/kg. All rats received an oral glucose challenge (1.9 g/kg) 5.5 hours after the treatment and 4 hours after withdrawal of the food. Blood samples were taken at 0, 15, 30, 60, 90, 120, and 180 minutes following the glucose challenge for plasma glucose measurement. […] On day 5, rats received the intravenous insulin (0.75 U/kg) 5.5 hours after the last dose and 4 hours after withdrawal of the food. Blood samples were taken at 3, 6, 9, 12, 15 and 18 minutes following the insulin injection for plasma glucose measurement.

Another series has as its system ZDF rats. Kind of series: Plasma glucose in ZDF rats, (−) versus (+) halofenate (Example 13). Format: in vivo. Particulars: 50 mg/kg oral once a day for 3 days. The procedure:
Male 8-9 week old ZDF rats were purchased from Genetic Models, Inc. (Indianapolis, Ind.). […] Rats that had 4-hour fasting plasma glucose levels between 200 and 500 mg/dL were used. […] The gavage volume was 5 ml/kg. Blood samples were taken at 5 hours post dose on day 2 and 3.

Series [5] has as its system Zucker Diabetic Fatty rats. Kind of series: Lipid lowering activity in Zucker Diabetic Fatty rats (Example 11). Particulars: ZDF rats; for plasma cholesterol course during treatment, in words: 13 days, racemate 50 mg/kg/day, enantiomers 25 mg/kg/day. Format: in vivo. How it is done:
Male Zucker diabetic fatty (ZDF) rats were obtained from GMI Laboratories (Indianapolis, Ind.) at 9 weeks of age. Vehicle or enantiomers of halofenate administered by oral gavage on a daily basis starting at 74 days of age. Initial blood samples were obtained for analysis one day before treatment and at the indicated times in the treatment protocol. Blood was analyzed for plasma triglyceride and cholesterol by standard techniques.

The subject of series [6] is oxonic acid induced hyperuricemic rats. Put plainly: Plasma uric acid in oxonic acid induced hyperuricemic rats (Example 17). Format: in vivo. Particulars: oxonic acid hyperuricemic SD rats, oral 50 mg/kg for 3 days, 100 mg/kg on day 4, 6 hours post gavage. The source says:
Male SD rats, weight 275-300 g were purchased from Charles River. […] To establish a hyperuricemic state, animals were put on a diet containing 2.5% (w/w) of oxonic acid (Sigma Chemical Co, St. Louis, Mo., USA) throughout the experiment. Oxonic acid elevates plasma uric acid by inhibiting uricase. Rats were screened for plasma uric acid levels 3 days after they were placed on the diet, and those that had extreme plasma uric acid levels were excluded. Rats were assigned to one of three groups and the mean uric acid levels were equivalent in each group. […] Oxonic acid was delivered in a liquid formulation containing 0.9% (w/v) methylcellulose. The gavage and injection volumes were 5 ml/kg. Blood samples were taken at 6 hours post oral gavage on day 4. Plasma uric acid levels were determined colorimetrically using the Infinity Uric Acid Reagent (Sigma Chemical Co, St. Louis, Mo., USA).

Series [7] concerns diabetic ob/ob mice. Put plainly: Glucose and insulin lowering on daily oral administration for 5 days in ob/ob mice (Example 9).
Method: Animals were housed (4-5 mice/cage) under standard laboratory conditions at 22° C. and 50% relative humidity, and were maintained on a diet of Purina rodent chow and water ad libitum. Prior to treatment, blood was collected from the tail vein of each animal. Mice that had non-fasting plasma glucose levels between 300 and 520 mg/dL were used. Each treatment group consisted of 10 mice that were distributed so that the mean glucose levels were equivalent in each group as the start of the study. […] The gavage volume was 10 ml/kg. Blood samples were taken at 3, 6, 27, 30 and 120 hour after the first dose and analyzed for plasma glucose and insulin. The animals were fasted overnight (14 hours) before the 120 hours sampling. Plasma glucose concentrations were determined calorimetrically using glucose oxidase method (Sigma Chemical Co, St. Louis, Mo., USA). Plasma insulin concentrations were determined by using the Rat Insulin RIA Kit from Linco Research Inc. (St. Charles, Mo., USA). Significance difference between groups (comparing drug-treated to vehicle-treated) was evaluated using Student unpaired t-test.
Series [8] deals with Zucker fatty rats. Kind of series: Short insulin tolerance test in Zucker fatty rats (Example 10). The class given is in vivo. As to conditions: 50 mg/kg/day for 5 days. How it is done:
as §1

The target of a further series is CYP2C9 (Homo sapiens, UniProt P11712).
For series [9], the system named is diabetic ob/ob mice. Kind of series: Time course of glucose-lowering after a single oral dose in ob/ob mice (Example 8). Particulars: single oral dose 250 mg/kg. Format: in vivo.
The test system of the next series is patients with diabetes. Particulars: cited from earlier work.
Series [10] can be described thus: Plasma hydrolysis of (−) CPTA prodrug esters in human plasma (Example 21). Format: in vitro ADME. Particulars: human plasma (heparinized, pooled), 125 or 250 μM, 37° C., hydrolysis to (−) CPTA; read-out: Plasma T1/2 (converted). The procedure: This example illustrates the plasma hydrolysis of various prodrug esters of the (S)-enantiomer of CPTA at physiological conditions. Hydrolysis was monitored and analyzed by HPLC. The hydrolytic product was identified by comparison to authentic (−) CPTA and the hydrolytic rates were calculated. [drawing 83]
Human plasma (heparinized, pooled) was obtained from Golden West Biololgicals Inc., USA; Plasma incubation was carried out in a Water Bath Shaker (New Brunswick Scientific, Inc.); Sample analyses were carried out on Agilent HPLC 1100 system.
Prepare 31.25 or 62.5 mM prodrug stock solutions in 100% DMSO. Add 4 μL of 31.25 or 62.5 mM prodrug stock solutions to 1.0 mL of plasma in a microcentrifuge tube to make plasma concentration at 125 or 250 μM, mix gently. Aliquots of 50 μL are transferred to 15 microcentrifuge vials. Three samples are immediately removed to a freezer at about −80° C. (0 time point), the remaining samples are incubated in a bath shaker at 37° C. Three samples are removed at 30 min, 2, 7 and 24 hr, and stored at −80° C. until analysis. The relative concentrations of MBX-compounds are determined by HPLC methods. If there are enough data points, the hydrolytic rate can be calculated using WinNonlin software. Table 10 provides a summary of plasma half-lives of some pro-drug esters and FIGS. 20A-20G illustrate the hydrolytic curves of those prodrug esters.

Where [11] appears, read: 250 mg/kg/day oral, listed as (+) enantiomer, 250 mg/kg/day.

Several values for one entry are separate records, joined by “and”; a condition that tells them apart may be missing. Identical values can stand only once.

The text below walks through data of patent US20040039053A1, “Use of(-) (3-halomethylphenoxy) (4-halophenyl) acetic acid derivatives for treatment of insulin resistance, type 2 diabetes, hyperlipidemia and hyperuricemia” (priority 2000, published 2004).

T1 sequence (P11712 whole entry): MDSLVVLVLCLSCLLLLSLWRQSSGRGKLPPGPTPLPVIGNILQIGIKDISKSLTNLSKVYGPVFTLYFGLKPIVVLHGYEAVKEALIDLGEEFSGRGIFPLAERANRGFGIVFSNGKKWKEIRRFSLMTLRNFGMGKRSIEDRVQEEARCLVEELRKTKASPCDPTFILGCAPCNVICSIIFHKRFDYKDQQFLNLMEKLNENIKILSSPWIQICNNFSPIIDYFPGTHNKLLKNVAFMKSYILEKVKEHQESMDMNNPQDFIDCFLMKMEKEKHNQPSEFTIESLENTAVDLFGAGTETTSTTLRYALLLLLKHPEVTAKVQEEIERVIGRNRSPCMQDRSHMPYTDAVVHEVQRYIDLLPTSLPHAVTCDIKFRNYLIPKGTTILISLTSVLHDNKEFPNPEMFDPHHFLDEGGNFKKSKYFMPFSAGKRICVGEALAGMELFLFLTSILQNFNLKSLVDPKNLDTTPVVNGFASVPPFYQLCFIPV
CYP2C19, sequence (P33261 whole entry, canonical isoform): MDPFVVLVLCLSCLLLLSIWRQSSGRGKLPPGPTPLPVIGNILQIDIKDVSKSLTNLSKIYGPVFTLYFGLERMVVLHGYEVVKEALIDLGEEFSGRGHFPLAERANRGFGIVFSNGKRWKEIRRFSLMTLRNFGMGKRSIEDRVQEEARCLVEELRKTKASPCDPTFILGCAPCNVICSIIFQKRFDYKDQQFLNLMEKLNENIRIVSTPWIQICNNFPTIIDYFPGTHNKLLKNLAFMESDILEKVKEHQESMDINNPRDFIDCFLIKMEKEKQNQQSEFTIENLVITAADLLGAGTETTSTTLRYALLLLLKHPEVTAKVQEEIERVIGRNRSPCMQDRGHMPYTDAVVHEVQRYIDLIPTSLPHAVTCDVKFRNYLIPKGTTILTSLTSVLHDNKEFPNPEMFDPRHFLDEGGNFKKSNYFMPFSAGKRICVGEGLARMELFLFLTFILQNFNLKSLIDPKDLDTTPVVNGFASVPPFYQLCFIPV
CYP2C9, sequence (P11712 whole entry): as the sequence (P11712 whole entry) above

Regarding `COc1ccc2[nH]c([S+]([O-])Cc3ncc(C)c(OC)c3C)nc2c1` (centres unmarked) [OMP, omeprazole, reference compound], the inhibition – broadly, the relative decrease from the control value, in per cent – at 30 min, 10 μM on CYP2C19 stood at 50%.

As to `O=C(O)C(Oc1cccc(C(F)(F)F)c1)c1ccc(Cl)cc1` (single isomer, unassigned; (+)) [(+) halofenic acid, (+) 4-chlorophenyl-(3-trifluoromethylphenoxy)-acetic acid, reference compound], in series [1] (individual rats 8, 9, 11), the “plasma concentration at 0 hour” value is “BQL (BQL = Below Quantifiable Limit < 1.00 μg/mL)”; the “plasma concentration at 1 hour” value is 1.12 μg/mL and BQL (BQL = Below Quantifiable Limit < 1.00 μg/mL) (2×); the “plasma concentration at 2 hours” value was 1.27 μg/mL and BQL (BQL = Below Quantifiable Limit < 1.00 μg/mL) and 1.09 μg/mL; the “plasma concentration at 4 hours” value was 1.67 μg/mL and BQL (BQL = Below Quantifiable Limit < 1.00 μg/mL) and 1.95 μg/mL. For the same molecule, in series [1] (individual rats 8, 9, 11), the “plasma concentration at 6 hours” value was 2.96 μg/mL and BQL (BQL = Below Quantifiable Limit < 1.00 μg/mL) and 1.73 μg/mL; the “plasma concentration at 8 hours” value is 2.58 μg/mL and BQL (BQL = Below Quantifiable Limit < 1.00 μg/mL) and 2.06 μg/mL; the “plasma concentration at 12 hours” value is 2850 ng/mL and 2230 ng/mL and 2080 ng/mL; the “plasma concentration at 24 hours” value was 2220 ng/mL and 1290 ng/mL and 1860 ng/mL. In series [1] (individual rats 8, 9, 11), the “plasma concentration at 48 hours” value is 1640 ng/mL and 1030 ng/mL and 1140 ng/mL; the “plasma concentration at 72 hours” value was 1.25 μg/mL and BQL (BQL = Below Quantifiable Limit < 1.00 μg/mL) (2×). Further, the “plasma concentration at 96 hours” value in series [1] (individual rats 8, 11) is reported as “BQL (BQL = Below Quantifiable Limit < 1.00 μg/mL)”. For the same molecule, the “plasma concentration at 120 hours” value in series [1] (rat 8) is on record as “BQL (BQL = Below Quantifiable Limit < 1.00 μg/mL)”. Moreover, the IC50 (as a rule, the concentration that gives 50% inhibition) in series [2] is 220 nM. Besides, in series [3], the “inhibition of cytochrome P450 2C9, in words” value is “quite potent”.

As for `CC(=O)NCCOC(=O)C(Oc1cccc(C(F)(F)F)c1)c1ccc(Cl)cc1` (single isomer, unassigned; (+)) [(+) halofenate, (+) 2-Acetamidoethyl 4-Chlorophenyl-(3-trifluoromethylphenoxy)-acetate, reference compound], the “incremental glucose area under the curve (AUC) vs control, in words” value in the series on Zucker fatty rats [4] was “not statistically significant”. Moreover, in the series on ZDF rats, the “plasma glucose compared to vehicle-treated animals, in words” value was “failed to reduce plasma glucose concentrations”. In addition, the “lowering of plasma triglyceride vs control at 7 days, in words” value in series [5] (37.5 mg/kg/day (High dose)) was “significant lowering of plasma triglyceride”. Also, the “days of treatment with significant plasma cholesterol decrease vs control” value in series [5] (37.5 mg/kg/day (High dose), 37.5 mg/kg/day) is “after 7 days but not after 14 days”. For the same molecule, the “plasma cholesterol course during treatment, in words” value in [5] is given as “remained relatively constant”. In addition, in series [6], the “plasma uric acid levels vs vehicle, in words” value is recorded as “lowered plasma uric acid levels, but it was not statistically significant”. For the same molecule, the “overnight fasting plasma insulin after 5 days, in words” value in the series on diabetic ob/ob mice [7] (125 mg/kg/day oral, listed as (+) enantiomer, 125 mg/kg/day) is listed as “did not lower plasma insulin”. Besides, in the series with diabetic ob/ob mice [7] (setting [11]), the “overnight fasting plasma insulin after 5 days, in words” value is given as “decrease in plasma insulin”; the “time points with reduced plasma insulin vs control” value was “greatest extent of reduced plasma insulin was noted at 27 and 30 hours”. Moreover, the “insulin sensitivity (slope of decline in glucose after i.v. insulin), in words” value with Zucker fatty rats [8] is recorded as “small effect on insulin sensitivity that was not significantly different from the vehicle-treated control”.

Take `O=C(O)C(Oc1cccc(C(F)(F)F)c1)c1ccc(Cl)cc1` (racemic) [racemic halofenic acid, 4-Chlorophenyl-(3-trifluoromethylphenoxy)-acetic Acid]: the midpoint of inhibition in [2], the IC50, lay at 450 nM. The “inhibition of cytochrome P450 2C9, in words” value in [3] is recorded as “found to inhibit cytochrome P450 2C9”.

With `Nc1ccc(S(=O)(=O)Nc2ccnn2-c2ccccc2)cc1` [SFZ, sulfaphenazole, reference compound], the “Tolbutamide 4-OH TB Production” value at CYP2C9 was “BQL”.

With `CC(=O)NCCOC(=O)C(Oc1cccc(C(F)(F)F)c1)c1ccc(Cl)cc1` (racemic) [racemic halofenate, 2-acetamidoethyl (4-chlorophenyl) (3-trifluoromethylphenoxy) acetate, reference compound], in the series on diabetic ob/ob mice [9], the “time of peak glucose-lowering activity” value is 9 h and the “time points with significant (p<0.05) decrease in glucose compared to control” value is “most of the timepoints”. The “plasma glucose after oral glucose challenge, in words” value in the series with Zucker fatty rats [4] (single oral dose 5.5 hours before challenge) is recorded as “plasma glucose was reduced”. Moreover, the “incremental glucose area under the curve (AUC) vs control, in words” value in the series with Zucker fatty rats [4] is given as “not statistically significant”. In addition, in [5], the “plasma cholesterol course during treatment, in words” value is “plasma cholesterol declined with treatment”. Also, in the series with patients with diabetes (previous studies), the side effects noted entry was “gastrointestinal bleeding from stomach and peptic ulcers”. For the same molecule, the “effect on glucose in patients with diabetes” value in the series with patients with diabetes (treated with racemic halofenate alone) was “minimal effect on glucose”. For the same molecule, the “time points with significant plasma glucose reduction vs control” value in the series with diabetic ob/ob mice [7] (250 mg/kg/day oral) is reported as “Significant decreases in glucose levels”. Also, the “time points with reduced plasma insulin vs control” value in the series with diabetic ob/ob mice [7] (250 mg/kg/day oral, listed as racemate, 250 mg/kg/day) is listed as “insulins were lower”.

In the case of `O=C(Oc1ccccc1)C(Oc1cccc(C(F)(F)F)c1)c1ccc(Cl)cc1` (single isomer, unassigned) [Compound 19.25], in series [10], the half-life is less than 30 min.
